Laboratory results taken from patent US4011327A (priority 1975, dated 1977).
Converted amounts (≈) assume the structure as drawn. “And” between values parts separate entries of the source, which are not always exact repeats. Equal values may be shown once. Read-outs that look alike come from different tables or passages of the source.

Experiments:
Assay type in all cases: cell-based
Sporotrichum schenckii = test: Antifungal activity in vitro, mycelial growth on Sabouraud dextrose agar; conditions: for weekly increments of the diameter of colony: duplicates a, b; for MIC: Sporothrix schenckii
Trichophyton rubrum = test: as above; conditions: for weekly increments of the diameter of colony: duplicates a, b; for MIC: Trichophyton rubrum
Blastomyces dermatitidis = test: as above; conditions: for weekly increments of the diameter of colony: duplicates a, b; for MIC: Blastomyces dermatitidis
Histoplasma capsulatum = test: microbe, parasite or virus in culture; conditions: for weekly increments of the diameter of colony: duplicates a, b; for MIC: Histoplasma capsulatum
[1] = 336 h, two week period, read-out: minimum in vitro inhibitory concentration
[2] = 336 h, read-out: minimum in vitro inhibitory concentration

## CSC1(C)CCC2C(C)CCC(c3ccoc3)N2C1O (single isomer, unassigned) [Example 7-MTDOL, 7β-methylthiodeoxynupharidin-6α-ol]
Sporotrichum schenckii; 10 mcg/ml, week 1, No. 1109, 25° C
  weekly increments of the diameter of colony: 11 mm and 10 mm
Sporotrichum schenckii; 10 mcg/ml, week 2, No. 1109, 25° C
  weekly increments of the diameter of colony: 25 mm and 24 mm
Sporotrichum schenckii; 20 mcg/ml, week 2, No. 1109, 25° C
  weekly increments of the diameter of colony: 20 mm
Sporotrichum schenckii; 20 mcg/ml, week 3, No. 1109, 25° C
  weekly increments of the diameter of colony: 31 mm and 29 mm
Sporotrichum schenckii; 40 mcg/ml, week 2, No. 1109, 25° C, a: colony overgrown by adjacent culture
  weekly increments of the diameter of colony: 18 mm and 15 mm
Sporotrichum schenckii; 40 mcg/ml, week 3, No. 1109, 25° C, a: colony overgrown by adjacent culture
  weekly increments of the diameter of colony: 18 mm and 25 mm
Sporotrichum schenckii; 60 mcg/ml, week 1, No. 1109, 25° C
  weekly increments of the diameter of colony: 0 mm
Sporotrichum schenckii; 60 mcg/ml, week 2, No. 1109, 25° C
  weekly increments of the diameter of colony: 10 mm
Sporotrichum schenckii; 60 mcg/ml, week 3, No. 1109, 25° C
  weekly increments of the diameter of colony: 20 mm
Sporotrichum schenckii; 80 mcg/ml, week 1, No. 1109, 25° C
  weekly increments of the diameter of colony: 0 mm
Sporotrichum schenckii; 80 mcg/ml, week 2, No. 1109, 25° C
  weekly increments of the diameter of colony: 0 mm
Sporotrichum schenckii; 100 mcg/ml, week 1, No. 1109, 25° C
  weekly increments of the diameter of colony: 0 mm
Sporotrichum schenckii; 100 mcg/ml, week 2, No. 1109, 25° C
  weekly increments of the diameter of colony: 0 mm
Sporotrichum schenckii; 100 mcg/ml, week 3, No. 1109, 25° C
  weekly increments of the diameter of colony: 0 mm
Sporotrichum schenckii; [1]
  MIC: 100 µg/mL (≈ 338 µM)
Sporotrichum schenckii; 504 h, up to the end of 3 weeks, Sabouraud dextrose agar, read-out: concentration inhibiting growth
  MIC: 100 µg/mL (≈ 338 µM)
Trichophyton rubrum; 10 mcg/ml, week 1, No. 1112, 25° C
  weekly increments of the diameter of colony: 10 mm and 11 mm
Trichophyton rubrum; 10 mcg/ml, week 2, No. 1112, 25° C, colony overgrown by adjacent culture
  weekly increments of the diameter of colony: 20 mm
Trichophyton rubrum; 10 mcg/ml, week 3, No. 1112, 25° C, colony overgrown by adjacent culture
  weekly increments of the diameter of colony: 22 mm and 25 mm
Trichophyton rubrum; 20 mcg/ml, week 1, No. 1112, 25° C
  weekly increments of the diameter of colony: 8 mm and 7 mm
Trichophyton rubrum; 20 mcg/ml, week 2, No. 1112, 25° C
  weekly increments of the diameter of colony: 21 mm and 20 mm
Trichophyton rubrum; 20 mcg/ml, week 3, No. 1112, 25° C, b: colony overgrown by adjacent culture
  weekly increments of the diameter of colony: 30 mm and 22 mm
Trichophyton rubrum; 40 mcg/ml, week 1, No. 1112, 25° C
  weekly increments of the diameter of colony: 8 mm and 6 mm
Trichophyton rubrum; 40 mcg/ml, week 2, No. 1112, 25° C
  weekly increments of the diameter of colony: 20 mm and 18 mm
Trichophyton rubrum; 40 mcg/ml, week 3, No. 1112, 25° C
  weekly increments of the diameter of colony: 30 mm and 26 mm
Trichophyton rubrum; 60 mcg/ml, week 2, No. 1112, 25° C
  weekly increments of the diameter of colony: 8 mm and 6 mm
Trichophyton rubrum; 60 mcg/ml, week 3, No. 1112, 25° C
  weekly increments of the diameter of colony: 14 mm and 15 mm
Trichophyton rubrum; 80 mcg/ml, week 1, No. 1112, 25° C
  weekly increments of the diameter of colony: 0 mm
Trichophyton rubrum; 80 mcg/ml, week 2, No. 1112, 25° C
  weekly increments of the diameter of colony: 5 mm
Trichophyton rubrum; 80 mcg/ml, week 3, No. 1112, 25° C
  weekly increments of the diameter of colony: 9 mm and 6 mm
Trichophyton rubrum; 100 mcg/ml, week 3, No. 1112, 25° C
  weekly increments of the diameter of colony: 6 mm and 7 mm
Trichophyton rubrum; [2]
  MIC: 100 µg/mL (≈ 338 µM)
Trichophyton rubrum; 504 h, read-out: concentration inhibiting growth
  MIC: 100 µg/mL (≈ 338 µM)
Blastomyces dermatitidis; 10 mcg/ml, week 1, No. 1107, 25° C
  weekly increments of the diameter of colony: 14 mm
Blastomyces dermatitidis; 10 mcg/ml, week 2, No. 1107, 25° C
  weekly increments of the diameter of colony: 20 mm and 21 mm
Blastomyces dermatitidis; 10 mcg/ml, week 3, No. 1107, 25° C
  weekly increments of the diameter of colony: 35 mm and 32 mm
Blastomyces dermatitidis; 20 mcg/ml, week 1, No. 1107, 25° C
  weekly increments of the diameter of colony: 10 mm
Blastomyces dermatitidis; 20 mcg/ml, week 2, No. 1107, 25° C
  weekly increments of the diameter of colony: 16 mm and 15 mm
Blastomyces dermatitidis; 20 mcg/ml, week 3, No. 1107, 25° C
  weekly increments of the diameter of colony: 17 mm and 18 mm
Blastomyces dermatitidis; 40 mcg/ml, week 1, No. 1107, 25° C
  weekly increments of the diameter of colony: 7 mm and 6 mm
Blastomyces dermatitidis; 40 mcg/ml, week 2, No. 1107, 25° C
  weekly increments of the diameter of colony: 15 mm
Blastomyces dermatitidis; 40 mcg/ml, week 3, No. 1107, 25° C
  weekly increments of the diameter of colony: 20 mm and 28 mm
Blastomyces dermatitidis; 60 mcg/ml, week 1, No. 1107, 25° C
  weekly increments of the diameter of colony: 0 mm
Blastomyces dermatitidis; 60 mcg/ml, week 2, No. 1107, 25° C
  weekly increments of the diameter of colony: 5 mm
Blastomyces dermatitidis; 60 mcg/ml, week 3, No. 1107, 25° C
  weekly increments of the diameter of colony: 5 mm and 7 mm
Blastomyces dermatitidis; 80 mcg/ml, week 1, No. 1107, 25° C
  weekly increments of the diameter of colony: 0 mm
Blastomyces dermatitidis; 80 mcg/ml, week 2, No. 1107, 25° C
  weekly increments of the diameter of colony: 0 mm
Blastomyces dermatitidis; 100 mcg/ml, week 1, No. 1107, 25° C
  weekly increments of the diameter of colony: 0 mm
Blastomyces dermatitidis; [1]
  MIC: 80 µg/mL (≈ 271 µM)
Blastomyces dermatitidis; 504 h, up to the end of 3 weeks, Sabouraud dextrose agar, read-out: concentration inhibiting mycelial growth
  MIC: 80 µg/mL (≈ 271 µM)
Histoplasma capsulatum; 10 mcg/ml, week 2, No. 1106, 25° C
  weekly increments of the diameter of colony: 15 mm and 10 mm
Histoplasma capsulatum; 10 mcg/ml, week 3, No. 1106, 25° C
  weekly increments of the diameter of colony: 25 mm and 29 mm
Histoplasma capsulatum; 20 mcg/ml, week 1, No. 1106, 25° C
  weekly increments of the diameter of colony: 0 mm
Histoplasma capsulatum; 20 mcg/ml, week 3, No. 1106, 25° C
  weekly increments of the diameter of colony: 10 mm and 5 mm
Histoplasma capsulatum; 40 mcg/ml, week 1, No. 1106, 25° C
  weekly increments of the diameter of colony: 0 mm
Histoplasma capsulatum; 60 mcg/ml, week 1, No. 1106, 25° C
  weekly increments of the diameter of colony: 0 mm
Histoplasma capsulatum; 60 mcg/ml, week 2, No. 1106, 25° C
  weekly increments of the diameter of colony: 0 mm
Histoplasma capsulatum; 60 mcg/ml, week 3, No. 1106, 25° C
  weekly increments of the diameter of colony: 0 mm
Histoplasma capsulatum; 80 mcg/ml, week 1, No. 1106, 25° C
  weekly increments of the diameter of colony: 0 mm
Histoplasma capsulatum; 80 mcg/ml, week 2, No. 1106, 25° C
  weekly increments of the diameter of colony: 0 mm
Histoplasma capsulatum; 80 mcg/ml, week 3, No. 1106, 25° C
  weekly increments of the diameter of colony: 0 mm
Histoplasma capsulatum; 100 mcg/ml, week 1, No. 1106, 25° C
  weekly increments of the diameter of colony: 0 mm
Histoplasma capsulatum; 100 mcg/ml, week 2, No. 1106, 25° C
  weekly increments of the diameter of colony: 0 mm
Histoplasma capsulatum; 100 mcg/ml, week 3, No. 1106, 25° C
  weekly increments of the diameter of colony: 0 mm
Histoplasma capsulatum; [2]
  MIC: 40 µg/mL (≈ 135 µM)
Histoplasma capsulatum; 504 h, read-out: concentration inhibiting mycelial growth
  MIC: 40 µg/mL (≈ 135 µM)
